Test results reported in patent US7553652B2, “Process for the preparation of (S)- or (R)-3,3,3-trifluoro-2-hydroxy-2-methylpropionic acid” (Lonza AG, priority 1996, dated 2009).

What was measured:
amidohydrolase = test: Enzyme characterization with heat-treated cell-free extract; assay type: biochemical, Klebsiella oxytoca PRS1K17 (DSM 11623); conditions: for effect of methanol on the amidohydrolase: methanol 5 to 20%, 40 and 60° C., substrate 1% (64 mM), 100 mM CAPS buffer pH 10.0
Method: A heat-treated cell-free extract was employed for characterizing the amidase. Cells of Klebsiella oxytoca PRS1K17 (DSM 11623) (OD650=160) were disrupted by passing through a French press at 19000 psi (1309 bar). Benzonase (1 μl×30 ml extract^−1) was added, and the extract was then centrifuged for 1 hour at 20000×g. The supernatant (approx. 20 mg×ml^−1 protein) was heated for 10 minutes at 70° C. and the precipitated protein was then removed by centrifugation. The supernatant (approx. 2.0 mg×ml^−1) was concentrated to 5.0 mg×ml^−1 protein and then stored at −20° C. The heat treatment removed approx. 90% of undesired protein. Up to a protein concentration of 0.5 mg×ml^−1, the reaction rate was in direct proportion to the protein concentration. A protein concentration of 0.2 mg×ml^−1 was therefore routinely employed in the tests. To determine the pH optimum, the concentration of (R,S)-2,2-HTFMPA (substrate) was 0.5% (32 mM) and the temperature was 40° C. The buffers listed in Table 4 were employed in the test.
The effect of the temperature on the reaction was determined in 100 mM CAPS buffer (pH 10.0) at a substrate concentration of 0.5% (32 mM). The effect of the substrate concentration was determined at 60° C. in 100 mM CAPS buffer (pH 10.0), and the effect of methanol at 40 and 60° C. at a substrate concentration of 1% (64 mM) in 100 mM CAPS buffer (pH 10.0). […] The temperature optimum is 70° C. […] 10.4 Enzyme Immobilization

[1] = Activity and stability of enzyme immobilized on Eupergit C; assay type: biochemical, Klebsiella oxytoca; conditions: 60° C., 4% racemic amide in 100 mM CAPS buffer (pH 10)
Method: The heat-treated cell-free extract was immobilized using Eupergit C (Röhm GmbH). To this end, Eupergit C (3.0 g) was added to 15 ml of heat-treated cell-free extract (protein concentration: 51 mg) in 1 M potassium phosphate buffer (pH 8.0). The mixture was incubated for 90 hours at room temperature with gentle stirring. The immobilized enzyme was filtered off and washed 4 times with 20 ml of 100 mM potassium phosphate buffer (pH 8.0). Support-bound enzyme (49 mg) gave 9.5 g of immobilized enzyme (fresh weight), which was stored in 100 mM potassium phosphate buffer (pH 10.0) at 4° C. To test the activity and stability of the immobilized enzyme, a small chromatography column was loaded with 5 g (25 mg of protein). A peristaltic pump (0.135 ml×min^−1) was used to circulate the substrate (100 ml 4% racemic amide in 100 mM CAPS buffer (pH 10)) between column and reservoir. The entire process was carried out in a water bath. At certain intervals, samples were taken for analysis. […] Three biotransformations (each with 4 g of racemic substrate, the first having been carried out at 60° C. and the remaining two at 40° C.) gave a total of 6 g of (S)-amide.

Molecule: C[C@@](O)(C(N)=O)C(F)(F)F [(R)-2,2-HTFMPA, 3,3,3-trifluoro-2-hydroxy-2-methyl-propionamide]
- Km (amidohydrolase; 60° C. in 100 mM CAPS buffer, pH 10): 32 mM

Molecule: CO [methanol]
- effect of methanol on the amidohydrolase (amidohydrolase): inhibitory effect
- effect of methanol on the amidohydrolase (amidohydrolase; listed as Methanol): inhibit the reaction

B1: amidohydrolase: (R)-stereospecific amidohydrolase from Klebsiella oxytoca PRS1/PRS1K17, SEQ ID No. 2; tested as heat-treated cell-free extract (protein, listed as Klebsiella oxytoca)
chain: MKWLEESIMAKRGVGAGRKPVTHHLTEEMQKEFHYTIGPYSTPVLTIEPGDRIIVDTRDAFEGAINSEQDIPSQLLKMPFLNPQNGPIMVNGAEKGDVLAVYIESMLPRGVDPYGICAMIPHFGGLTGTDLTAMLNDPLPEKVRMIKLDSEKVYWSKRHTLPYKPHIGTLSVSPEIDSINSLTPDNHGGNMDVPDIGPGSITYPLVRAPGGRLFIGDAHACQGDGEICGTAVEFASITTIKVDLIKNWQLSWPRMENAENIMSIGSARPLEDATRIAYRDLIYWLVEDFGFEQWDAYMLLSQCGKVRLGNMVDPKYTVGAMLNKNLLV
- specific activity [1]: 114 μg×min^−1×mg protein^−1
